Laboratory results: the supplement of paper PMC10307832

Columns and labels:
Assay in all cases: relative viability (nuclei count vs DMSO), 5 days (fraction); higher = more cells survive
[1] = compound: N=C1NC(=O)/C(=C/c2ccc(O)cc2)S1 [Mirin] + CCNC(=O)c1noc(-c2cc(C(C)C)c(O)cc2O)c1-c1ccc(CN2CCOCC2)cc1 [Luminespib] (partner 0.01 µM)
Summary of the method: (§1)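 Lung cancer cell lines, seeded in 1536-well plates, were treated the following day by pin tool with a single drug or with five library-drug doses (not always all listed) in √10 steps on top of a fixed anchor-drug dose. Cells were fixed and nuclei stained in one step after 5 days, and nuclei were counted. Relative viability is the nuclei count for treated wells divided by that for vehicle wells, reported as medians of duplicate plates.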

[2] = compound: N=C1NC(=O)/C(=C/c2ccc(O)cc2)S1 [Mirin] + Cc1nc(Nc2ncc(C(=O)Nc3c(C)cccc3Cl)s2)cc(N2CCN(CCO)CC2)n1 [Dasatinib] (partner 0.075 µM)
Summary of the method: as §1

[3] = compound: CCn1c(-c2nonc2N)nc2cnc(Oc3cccc(NC(=O)c4ccc(OCCN5CCOCC5)cc4)c3)cc21 + O=C(c1cc(Cc2n[nH]c(=O)c3ccccc23)ccc1F)N1CCN(C(=O)C2CC2)CC1 [Olaparib] (partner 8 µM)
Summary of the method: as §1

[4] = compound: CCC1=CN=CN=C1N2CCN(CC2)CC3=NC4=C(N3)C=C(C=C4)C(F)(F)F + CS(=O)(=O)CCNCc1ccc(-c2ccc3ncnc(Nc4ccc(OCc5cccc(F)c5)c(Cl)c4)c3c2)o1 [Lapatinib] (partner 2 µM)
Summary of the method: as §1

## UMC-11
[1]; first compound 0.25 µM
  relative viability: 1.09
[1]; first compound 0.7906 µM
  relative viability: 0.983
[1]; first compound 2.5 µM
  relative viability: 1.01
[1]; first compound 7.906 µM
  relative viability: 0.826
[1]; first compound 25 µM
  relative viability: 0.695
[2]; first compound 0.25 µM
  relative viability: 0.45
[2]; first compound 0.7906 µM
  relative viability: 0.424
[2]; first compound 2.5 µM
  relative viability: 0.493
[2]; first compound 7.906 µM
  relative viability: 0.415
[2]; first compound 25 µM
  relative viability: 0.438
[3]; first compound 0.04 µM
  relative viability: 0.38
[3]; first compound 0.1265 µM
  relative viability: 0.303
[3]; first compound 0.4 µM
  relative viability: 0.32
[3]; first compound 1.265 µM
  relative viability: 0.088
[3]; first compound 4 µM
  relative viability: 0.185
[4]; first compound 0.04 µM
  relative viability: 0.808
[4]; first compound 0.1265 µM
  relative viability: 0.974
[4]; first compound 0.4 µM
  relative viability: 0.905
[4]; first compound 1.265 µM
  relative viability: 0.719
[4]; first compound 4 µM
  relative viability: 0.977
